Patent publication US11320438B2, “Isotopic methods for measurement of tryptophan and metabolites thereof” (ELECTROPHORETICS LIMITED, priority 2015, dated 2022)

What was measured:
human dendritic cells = assay: 1-MT degradation in interferon-gamma stimulated human dendritic cells; format: in vitro ADME; conditions: IFN gamma, after 6 days of incubation
Description: (§1) SKOV-3 ovarian carcinoma cells were cultured in McCoy's 5A Medium (BioConcept, Allschwil, Switzerland) supplemented with L-Tryptophan as indicated (Sigma-Aldrich, Taufkirchen, Germany), 300 mg/l Glutamine (Carl Roth, Karlsruhe, Germany), 10% FBS (Thermo Fisher Scientific Inc., Waltham, Mass., USA) and 100 U/mL penicillin and 100 μg/mL streptomycin (PAA Laboratories, Pasching, Austria). Human embryonic kidney (HEK) cells were cultured in DMEM (PAA Laboratories), 10% FBS (Thermo Scientific) and 100 U/mL penicillin and 100 μg/mL streptomycin (PAA Laboratories). Peripheral blood mononuclear cells (PBMC) were isolated from healthy, non-related blood-donors by density-gradient centrifugation using lymphocyte separation medium LSA 1077 (PAA Laboratories) and cultured in RPMI 1640 (PAA Laboratories) containing 10% FBS (Thermo Fisher Scientific Inc) and 100 U/mL penicillin and 100 μg/mL streptomycin (PAA Laboratories). For the generation of dendritic cells (DC), CD14+ cells were separated using the magnetic activated cell sorting (MACS) technology (Miltenyi Biotec, Bergisch Gladbach, Germany) and plated in RPMI 1640 (Cambrex, Verviers, Belgium) containing 10% FBS, 200 IU/mL interleukin-4 and 1000 IU/mL GM-CSF (Immunotools, Friesoythe, Germany) for 7 days. All cells were routinely tested for contamination by the Multiplex cell Contamination Test (44). Cultures were incubated at 37° C. in a 5% CO2 atmosphere. 20 mM stock solutions (of 1-methyl-D-tryptophan (1-D-MT, lot numbers: 09315BH, 08007EJ) and 1-methyl-L-tryptophan (1-L-MT, lot numbers: 08023HE, 15399MJ) (Sigma-Aldrich) were prepared by dissolving the inhibitors in 0.1 N NaOH. The pH was adjusted to 7.5 using hydrochloric acid. To avoid contamination of the cell cultures, the stock solutions were filtered through 0.2 μm filters. Interferon-gamma (IFN-g) was purchased from Immunotools (Friesoythe, Germany).
(§2) 50 μL of each single cell culture supernatant was labelled with TMT® sixplex reagents (Thermo Fisher Scientific).
(§3) Samples were either measured on a QTof II (Waters) mass spectrometer coupled to an UPLC nanoLC (Waters) on an LTQ Orbitrap Velos Pro (Thermo Scientific) coupled to a Proxeon nanoLC-II (Thermo Scientific) or a triple quadrupole system coupled to nanoLC-II (EASY-nLC II TSQ Vantage system). The samples were resolved in 150 μl 2% ACN, 0.1% formic acid (1 μL sample=1 μL mixed supernatant equivalent).
Immune cells can also express tryptophan-degrading enzymes and tryptophan degradation is known to exert potent immunosuppressive effects (9). To assess whether also immune cells, such as dendritic cells, degrade 1-MT to methyl-kynurenine, three independent biological samples of supernatants of human dendritic cells from two different donors were analysed (only donor 1 shown). […]

TDO = target: T1, TDO (Homo sapiens, UniProt P48775); assay: Degradation in supernatants of HEK cells expressing TDO; format: in vitro ADME; conditions: day 0 vs day 6
T1 construct: expressed in transfected cells; host or cells: HEK293 cells, neomycin-selected
T1 sequence (P48775 whole entry): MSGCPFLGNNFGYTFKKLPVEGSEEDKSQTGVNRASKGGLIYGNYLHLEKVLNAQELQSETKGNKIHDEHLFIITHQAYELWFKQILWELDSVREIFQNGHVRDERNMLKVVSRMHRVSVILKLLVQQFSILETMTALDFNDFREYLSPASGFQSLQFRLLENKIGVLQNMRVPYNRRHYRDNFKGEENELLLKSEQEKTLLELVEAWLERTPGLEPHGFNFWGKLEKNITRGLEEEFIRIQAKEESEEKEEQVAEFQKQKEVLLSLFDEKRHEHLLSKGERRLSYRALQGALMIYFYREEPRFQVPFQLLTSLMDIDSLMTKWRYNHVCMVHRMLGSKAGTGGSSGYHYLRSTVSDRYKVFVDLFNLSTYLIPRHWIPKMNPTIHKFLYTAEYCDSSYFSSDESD
Description: SKOV-3 ovarian carcinoma cells were cultured in McCoy's 5A Medium (BioConcept, Allschwil, Switzerland) supplemented with L-Tryptophan as indicated (Sigma-Aldrich, Taufkirchen, Germany), 300 mg/l Glutamine (Carl Roth, Karlsruhe, Germany), 10% FBS (Thermo Fisher Scientific Inc., Waltham, Mass., USA) and 100 U/mL penicillin and 100 μg/mL streptomycin (PAA Laboratories, Pasching, Austria). Human embryonic kidney (HEK) cells were cultured in DMEM (PAA Laboratories), 10% FBS (Thermo Scientific) and 100 U/mL penicillin and 100 μg/mL streptomycin (PAA Laboratories). […] All cells were routinely tested for contamination by the Multiplex cell Contamination Test (44). Cultures were incubated at 37° C. in a 5% CO2 atmosphere.
The full length cDNA sequence of IDO1 and TDO was cloned via Gateway® cloning into pDEST-Flag-C, a Gateway® compatible overexpression vector containing a single C-terminal FLAG-tag, resulting in pDEST-TDO-FLAG-C and pDEST-IDO1-FLAG-C.
Basis for the pDEST-FLAG-C was the pDEST26 vector (Invitrogen). The 6×His-tag of pDEST26 was removed with site-directed mutagenesis PCR, resulting in pDEST. The single C-terminal Flag-tag was introduced into pDEST, by site-directed mutagenesis PCR, resulting in Flag-C. […] Cells were selected using 1.5 mg/ml neomycin (Sigma-Aldrich).
as §2, §3

SKOV-3 cells = assay: Degradation of tryptophan and 1-MT in SKOV-3 cell culture supernatants (TMT sixplex LC-MS/MS); format: in vitro ADME, human; conditions: for degradation to methyl-kynurenine: days 0-6, 1000 μM 1-MT with 70 μM tryptophan, or 200 μM 1-MT with no added tryptophan; for depletion of the substance from the media: after 6 days of incubation
Description: as §1, §2
The dry TMT® sixplex mixtures were reconstituted in 300 μL of water:acetonitrile 95:5 with 0.1% trifluoroacetic acid (buffer A). 150 μL were fractionated by reversed phase chromatography (Nucleosil 120-5 C18 column, 250 mm×4.6 mm, Macherey Nagel) using a Waters 2695 HPLC with UV detection at 214 nm. After loading, the sample was washed 4 min with buffer A. Then, the substances were eluted by increasing the acetonitrile content within 40 min to 55%. The flow rate was kept at 1.5 mL/min over the entire gradient. The fraction from 18-30 minutes was collected and dried.
as §3
The SIM m/z range was from 350-500 Th with a resolution of 60000 and an AGC setting of 5e4 with a maximum scan time of 500 ms. MS/MS was acquired as TOP10 in HCD mode with a resolution of 7500 and an AGC setting of 5e4 with a maximum scan time of 500 ms. Isolation width was 1.5 amu and normalized collision energy was 60. The default charge state of the precursor was set to z=1. All other charge states were rejected. Analytes of interest were acquired in MSMS mode using an inclusion list only mode (±50 ppm) and all other analytes not included in the list were discarded.

[1] = target: T2, aryl hydrocarbon receptor (Homo sapiens, UniProt P35869); assay: qRT-PCR of AHR target genes in SKOV-3 cells; format: cell-based
T2 construct: Treatment of SKOV-3 cells with 1-D/L-MT under tryptophan-free conditions induced the AHR target genes CYP1A1 and TIPARP; endogenous in cells; host or cells: SKOV-3 ovarian carcinoma cells
T2 sequence (P35869 11-848): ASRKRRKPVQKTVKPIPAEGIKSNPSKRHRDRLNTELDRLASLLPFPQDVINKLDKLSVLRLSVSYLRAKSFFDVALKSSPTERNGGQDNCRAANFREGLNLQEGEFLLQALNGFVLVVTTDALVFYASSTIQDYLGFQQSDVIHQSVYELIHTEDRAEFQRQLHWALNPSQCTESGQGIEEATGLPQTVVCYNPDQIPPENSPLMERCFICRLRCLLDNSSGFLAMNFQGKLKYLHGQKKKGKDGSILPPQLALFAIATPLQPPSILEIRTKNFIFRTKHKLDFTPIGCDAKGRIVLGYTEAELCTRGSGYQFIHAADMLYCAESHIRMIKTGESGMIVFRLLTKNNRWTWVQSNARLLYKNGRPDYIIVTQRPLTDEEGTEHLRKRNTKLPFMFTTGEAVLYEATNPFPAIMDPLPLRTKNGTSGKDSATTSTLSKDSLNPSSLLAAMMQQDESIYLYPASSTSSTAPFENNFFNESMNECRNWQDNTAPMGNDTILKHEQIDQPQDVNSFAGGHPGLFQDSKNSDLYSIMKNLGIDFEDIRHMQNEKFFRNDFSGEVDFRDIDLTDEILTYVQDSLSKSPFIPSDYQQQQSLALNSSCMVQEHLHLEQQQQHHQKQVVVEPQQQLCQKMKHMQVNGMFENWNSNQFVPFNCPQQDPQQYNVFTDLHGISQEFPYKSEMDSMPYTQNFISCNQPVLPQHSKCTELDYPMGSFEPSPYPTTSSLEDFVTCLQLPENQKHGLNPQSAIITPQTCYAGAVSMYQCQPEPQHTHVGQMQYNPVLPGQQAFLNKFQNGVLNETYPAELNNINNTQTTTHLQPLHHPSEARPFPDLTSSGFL
Description: as §1, with “20 mM stock solutions (of 1-methyl-D-tryptophan (1-D-MT, lot numbers: 09315BH, 08007EJ) and 1-methyl-L-tryptophan (1-L-MT, lot numbers: 08023HE, 15399MJ) (Sigma-Aldrich) were prepared by dissolving the inhibitors in 0.1 N NaOH. The pH was adjusted to 7.5 using hydrochloric acid. To avoid contamination of the cell cultures, the stock solutions were filtered through 0.2 μm filters. Interferon-gamma (IFN-g) was purchased from Immunotools (Friesoythe, Germany).” left out
Total RNA was isolated with the Qiagen RNAeasy RNA isolation kit (Hilden, Germany) and cDNA was synthesized with the Applied Biosystems reverse-transcription-Kit (Foster City, USA) according to manufacturer's instructions. […] The size of the amplicons was analyzed by loading the samples and a 100 bp ladder (Invitrogen, Leek, Netherlands) on a 2% agarose gel, which was then stained with ethidium bromide and analyzed under UV light. […] Relative quantification of gene expression was determined by comparison of threshold values. […]

[2] = Serum analysis of LPS-stimulated mice injected with 1-L-MT; conditions: 1 mg/mouse 1-L-MT i.p.
Description: Animal work was supervised by institutional animal protection officials in accordance with the National Institute of Health guidelines Guide for the Care and Use of Laboratory Animals. C57BL/6N mice were purchased from Charles River (Sulzfeld, Germany). […] The blood was centrifuged to obtain serum, which was finally prepared for LC-MS/MS measurements.
50 μL of serum sample was precipitated with 50 μL TCA-solution (60 g/l) at 4° C. overnight. The suspension was centrifuged for 15 minutes at 4° C. at 6000 g. The pellet was discarded and the supernatant used for further experiments after neutralization with 1 M NaOH to pH 7-8.
66 μL of each precipitated and neutralized mouse serum sample were diluted with 6 μL of 1M triethylammonium bicarbonate (TEAB, Sigma-Aldrich) and then 24 μL of a 60 mM TMT reagent stock solution in ACN (LichroSolv, VWR) were added. The reaction was incubated for 1 hour at room temperature and finally quenched by adding 12 μL of 2.5% aqueous hydroxylamine solution (Sigma-Aldrich). The respective six labelled serum samples to be compared were mixed and dried.
For the Orbitrap MS runs the mixed mouse serum sample was dissolved in 2% ACN, 0.1% formic acid and ˜0.88 μL of mixed serum equivalent was loaded on column.

HEK control cells (WT) = assay: Degradation in supernatants of HEK control cells (WT); format: in vitro ADME, human; conditions: data not shown
Description: SKOV-3 ovarian carcinoma cells were cultured in McCoy's 5A Medium (BioConcept, Allschwil, Switzerland) supplemented with L-Tryptophan as indicated (Sigma-Aldrich, Taufkirchen, Germany), 300 mg/l Glutamine (Carl Roth, Karlsruhe, Germany), 10% FBS (Thermo Fisher Scientific Inc., Waltham, Mass., USA) and 100 U/mL penicillin and 100 μg/mL streptomycin (PAA Laboratories, Pasching, Austria). Human embryonic kidney (HEK) cells were cultured in DMEM (PAA Laboratories), 10% FBS (Thermo Scientific) and 100 U/mL penicillin and 100 μg/mL streptomycin (PAA Laboratories). Peripheral blood mononuclear cells (PBMC) were isolated from healthy, non-related blood-donors by density-gradient centrifugation using lymphocyte separation medium LSA 1077 (PAA Laboratories) and cultured in RPMI 1640 (PAA Laboratories) containing 10% FBS (Thermo Fisher Scientific Inc) and 100 U/mL penicillin and 100 μg/mL streptomycin (PAA Laboratories). […]
Samples were either measured on a QTof II (Waters) mass spectrometer coupled to an UPLC nanoLC (Waters) on an LTQ Orbitrap Velos Pro (Thermo Scientific) coupled to a Proxeon nanoLC-II (Thermo Scientific) or a triple quadrupole system coupled to nanoLC-II (EASY-nLC II TSQ Vantage system). […]

[3] = SKOV-3 cells, tryptophan-free conditions, qRT-PCR

For `Cn1cc(C[C@@H](N)C(=O)O)c2ccccc21` [1-D-MT, 1-methyl-D-tryptophan], the “methyl-kynurenine in the media” value (human dendritic cells) was “increase in methyl-kynurenine”, the “reduction of substrate in the media” value (human dendritic cells) was “no clear reduction” and the “increase in methyl-kynurenine after treatment” value (TDO) was “not”. The “metabolism of tryptophan to kynurenine in treated samples” value (SKOV-3 cells; D-MT compared with L-MT samples) was “more quickly and higher kynurenine levels were reached” and the degradation to methyl-kynurenine (SKOV-3 cells) was “degraded to methyl-kynurenine”.
With `Cn1cc(CC(N)C(=O)O)c2ccccc21` [1-D/L-MT] the “induction of AHR target gene CYP1A1” value [1, 3] was “induced” and the “induction of AHR target gene TIPARP” value [1, 3] was “induced”.
For `Cn1cc(C[C@H](N)C(=O)O)c2ccccc21` [1-L-MT, 1-methyl-L-tryptophan], the “methyl-kynurenine in the media” value (human dendritic cells) was “increase in methyl-kynurenine”, the “reduction of substrate in the media” value (human dendritic cells) was “reduction” and the “increase in methyl-kynurenine after treatment” value (TDO) was “very slight increase”. For the same molecule, the “serum methyl-kynurenine versus mice treated with LPS alone” value [2] was “significantly higher concentrations of methyl-kynurenine”, the “depletion of the substance from the media” value (“depletion of the substance” below) (SKOV-3 cells) was “completely depleted” and the degradation to methyl-kynurenine (SKOV-3 cells) was “degraded more quickly than 1-D-MT”.
For `Cn1cc(C[C@H](N)C(=O)O)c2ccccc21` [1-MT, 1-methyl-tryptophan], the “degradation / decrease of substrate in cell supernatants” value (TDO) was “no decrease” and the “degradation by HEK control cells” value (HEK control cells (WT)) was “degraded neither”.
In the case of `N[C@H](Cc1c[nH]c2ccccc12)C(=O)O` [D-tryptophan], the “depletion of the substance” value (SKOV-3 cells) is reported as “not entirely depleted”.
With `N[C@@H](Cc1c[nH]c2ccccc12)C(=O)O` [L-tryptophan] the “depletion of the substance” value (SKOV-3 cells) was “completely depleted”.
In the case of `CNc1ccccc1C(=O)C[C@H](N)C(=O)O` [methyl-kynurenine, (S)—N-methyl kynurenine], the “activation of the AHR” value ([1]; inferred from treatment of SKOV-3 cells with 1-D/L-MT) is reported as “capable of activating the AHR”.
For `N[C@@H](Cc1c[nH]c2ccccc12)C(=O)O` [tryptophan], the “degradation / decrease of substrate in cell supernatants” value (TDO) was “degraded tryptophan to kynurenine” and the “degradation by HEK control cells” value (HEK control cells (WT)) was “degraded neither”.
